Columns and labels:
[1] = test system: Hirse Sorte Mironovskoye 94; assay: Field test of gametocidal activity, millet Mironovskoye 94; format: in vivo; conditions: Mironovskoye 94, period V, 1% aqueous emulsion, 6 kg/ha in 600 l water
Excerpt: (§1) Die gametozide Aktivität der erfindungsgemäßen Sterilisationsmittel war in Feldversuchen in verschiedenen bodenklimatischen Zonen mit Teilstücken von 10 m^2 Größe in dreibis viermaliger Wiederholung festgestellt. Jedes Sterilisationsmittel wurde mindenstens 5 Jahre lang geprüft.
(§2) Die Entwicklung der Perioden der Organogenese wird zytologisch überwacht. Die Behandlung von Pflanzen mit dem Sterilisationsmittel erfolgt am Anfang der fünften Periode der Organogenese nach Kupermann.
(§3) Mit dem Ährenschieben verwirklicht man die Isolierung von Hauptähren und anderen Stockwerken in Pergametbeuteln. Bei Weizen und Tritikale werden Einzelisolatoren benutzt. Bei Roggen schließt man je 1 Ähre von […] verschiedenen nebeneinander befindlichen Pflanzen unter einen gemeinsamen Isolator ein. Bei Hirse wird jede Rispe getrennt isoliert. Der Sterilitätsprozentsatz (X) für Weizen, Roggen, Tritikale und Hirse wird nach der Formel [formula] ermittelt.
(§4) Die Kornzahl in nicht isolierten Ähren von Kontrollpflanzen wird bedingt für 100 % Ansetzen bei freier Bestäubung angenommen.
(§5) Um zuverlässige Angaben zu erhalten, verwendet man 20 bis 25 Isolatoren je Wiederholung für Weizen und Tritikale, 10 bis 15 Isolatoren jeder Wiederholung für Roggen und Hirse.
Pflanzen der Hirse Sorte Mironovskoye 94 werden in der V.Periode der Organogenese mit einer 1%igen wäßrigen Emulsion von 1,1,3-Tribrompropan, 1,2,3-Tribrompropan, 1,2-Dibrompropan, 1,2-Dibrom-3-chlorpropan, 1,3-Dibrompropan, 1,1,1,3-Tetrabromheptan, 1,1,3-Tribromheptan, 1,2-Dibromheptan behandelt. Die Emulsion enthält 0,5 Masse% C12-C14--Kalziumalkylbenzolaulfonat und 0,01 Masse% Dimethylsulfoxid als Adjuvans. Der Verbrauch an Präparat beträgt 6 kg/ha bei 600 1 Wasserdurchsatz. Die Prüfergebnisse sind in der Tabelle 15 angegeben. Die gleichen Ergebnisse sind bei der Behandlung der Hirse Sorte Mironovskoye 94 in der VI. Periode der Organogenese erhalten.

[2] = test system: Sommerweizens Sorte Moskowskaya 35; assay: Field test of gametocidal activity, spring wheat Moskowskaya 35; format: in vivo, Weizen; conditions: Moskowskaya 35, period V, 1% aqueous emulsion, 6 kg/ha in 600 l water
[3] = test system: diploidem Roggen Kharkovskaya 55; assay: Field test of gametocidal activity, diploid rye Kharkovskaya 55; format: in vivo; conditions: Kharkovskaya 55, period V, 1% aqueous emulsion, 6 kg/ha in 600 l water
Excerpt: as §1, §2, §3, §4, §5
Pflanzen von diploidem Roggen Kharkovskaya 55 werden in der V. Periode der Organogenese mit einer l%igen wäßrigen Emulsion von 1,1,3-Tribrompropan, 1,2,3-Tribrompropan, 1,2-Dibrompropan, 1,1,3-Tribrom-3-chlorpropan, 1,2--Dibrom-3-chlorpropan, 1,1,1,3-Tetrabromheptan, 1,1,3-Tribromheptan bzw. 1,2-Dibromheptan behandelt. Die Emulsion enthält 0,5 Masse% C12-C14-Kalziumalkylbenzolsulfonat und 0,01 Masse% Dimethylformamid als Adjuvans. Der Verbrauch an Präparat beträgt 6 kg/ha bei 600 1 Wasserdurchsatz. Die Prüfergebnisse sind in der Tabelle 13 angegeben. Die gleichen Ergebnisse sind bei der Behandlung von diploidem Roggen Kharkovskaya 55 in der VI. Periode der Organogenese erhalten.

[4] = test system: Winterweizens Sorte Mironowskaya 808; assay: Field test of gametocidal activity (anther sterilisation), winter wheat Mironowskaya 808; format: in vivo, Weizen; conditions: Mironowskaya 808, period V of organogenesis, 1% aqueous emulsion, 10 kg/ha
[5] = test system: diploidem Roggen Chulpan; assay: Field test of gametocidal activity, diploid rye Chulpan; format: in vivo; conditions: Chulpan, period V, 1% aqueous emulsion, 10 kg/ha
[6] = read-out: Prozentsatz der Sterilität

CCCCC(Br)CC(Br)Br (centres unmarked) [Beispiel 10, 1,1,3-Tribromheptan]
Kornzahl der Rispe bei freier Bestäubung [1]: 180,1 | Kornzahl der Rispe im Isolator [1]: 0,0 | Prozentsatz des Ansetzens von Samen bei freier Bestäubung ([1]; control = 100): 73,6% | percent sterility at 6000 g/ha [1, 6]: 100% | Kornzahl der Ähre bei freier Bestäubung [2]: 36,2 | Kornzahl der Ähre im Isolator [2]: 0,1 | Prozentsatz des Ansetzens von Samen bei freier Bestäubung ([2]; control = 100): 94,7% | percent sterility at 6000 g/ha [2, 6]: 99.8% | Kornzahl der Ähre bei freier Bestäubung [3]: 36,2 | Kornzahl der Ähre im Isolator [3]: 0,1 | Prozentsatz des Ansetzens von Samen bei freier Bestäubung ([3]; control = 100): 97,8% | percent sterility at 6000 g/ha [3, 6]: 99.8% | Kornzahl der Ähre bei freier Bestäubung [4]: 40,0 | Kornzahl der Ähre im Isolator [4]: 0,6 | Prozentsatz des Ansetzens von Samen bei freier Bestäubung ([4]; control = 100): 96,2% | pest or weed control at 1 %, 10000 g/ha ([4]; read-out: Prozentsatz der Sterilität %): 98.4% | Kornzahl der Ähre bei freier Bestäubung [5]: 46,3 | Kornzahl der Ähre im Isolator [5]: 0,3 | Prozentsatz des Ansetzens von Samen bei freier Bestäubung ([5]; control = 100): 92,4% | percent sterility at 10000 g/ha [5, 6]: 99.4%
